Laboratory results: US5597899A, “Tumor necrosis factor muteins” (Hoffmann-La Roche Inc., priority 1993, dated 1997)

What was measured:
human TNFR-p75 [1] = experiment: Solid phase radioligand competition binding assay, E. coli lysates, TNFR-p75; conditions: 10-fold serial dilutions 10^-2 to 10^-7, < = inhibition but below 50% at 1:100, << = no measurable inhibition at 1:100
Method: (§1) 10 ml suspensions of E. coli cells transformed and induced as described in Examples I and II were centrifuged at 4'000 rpm for 10 min and resuspended in 0.9 ml of lysis buffer (10 mM Tris-HCl pH 8.0, 5 mM EDTA, 2 mM PMSF, 10 mM benzamidine, 200 units/ml aprotinine and 0.1 mg/ml lysozyme). After 20 min incubation at room temperature 50 μl of 1M MgCl2, 20 μl of 5 mg/ml DNaseI, 50 μl of 5M NaCl and 50 μl of 10% NP-40 were added and the mixture was further incubated at room temperature for 15 min. 0.5 ml of the lysate clarified by centrifugation at 13'000 rpm for 5 min was subjected to ammonium sulfate precipitation (25%-70% cut). The 70% ammonium sulfat pellet was dissolved in 0.2 ml PBS and analyzed by sodium dodecyl sulfate polyacrylamide gel electrophoresis (SDS-PAGE) to confirm presence and approximate amount of the recombinant proteins.
96 well microtiter plates were coated with recombinant human […] TNFR-p75-hγ3 and TNFR-p55-hγ3 fusion proteins (extracellular portion of the receptor fused to the Fc part of human IgG3) at a concentration of 0.3 μg/ml and 0.1 μg/ml, respectively, in phosphate buffered saline (PBS, 100 μl/well, overnight at 4° C.) [Loetscher, H. et al. J. Biol. Chem. 266, 18324-18329 (1991); Lesslauer, W. et al. Eur. J. Immunol. 21, 2883-2886 (1991)]. After blocking with blocking buffer (50 mM Tris pH 7.4, 140 mM NaCl, 5 mM EDTA, 0.02% NAN3, 1% defatted milk powder) the microtiter plate was washed with PBS and incubated in blocking buffer containing 0.1% defatted milk powder with 10 ng/ml human wild-type ^125 I-TNFα and various dilutions of E. coli lysates ranging from 10^-2 to 10^-7 (10-fold serial dilutions). TNFα was labelled by the Iodogen method (Pierce Chemical Company) to a specific activity of about 10-30 μCi/μg. The volume was 100 μl/well and each lysate dilution was assayed in duplicate or triplicate. After three hours at room temperature the wells were thoroughly washed with PBS and counted in a γ-counter. The results are given in Table 2 for lysates comprising the muteins indicated therein.

human TNFR-p75 [2] = experiment: Competitive binding of purified muteins to recombinant human TNFR-p75; conditions: for Decrease in Binding Affinity with Respect to Wildtype TNFR-p75: IC50 of mutein divided by IC50 of wildtype TNFα; for Mutein Concentration for 50% Inhibition of 125I-TNFα Binding (IC50) TNFR-p75: purified protein, 10 ng/ml 125I-TNFα
Method: (§2) The cells were disrupted in a French press at a pressure of 20'000 psi or by sonication in a Branson Sonifier (Model 450, 2×2minat maximal output, on ice). […] Proteins were eluted with a linear NaCl gradient (0 to 400 mM in 20 mM Tris pH 9.0) at a flow rate of 1 ml/min. 5 ml fractions were collected and analyzed for the presence of TNFα muteins by SDS-PAGE. Positive fractions were pooled, dialyzed against 20 mM 2-morpholino-ethanesulfonic acid (MES) pH 6.0 and applied to a MonoS column (HR 5/5, LKB-Pharmacia) equilibrated in 20 mM MES pH 6.0. Proteins were eluted with a linear NaCl gradient (0 to 400 mM in 20 mM MES pH 6.0) at a flow rate of 0.5 ml/min. […] After dialysis against PBS the protein concentration was determined by the BCA Protein Assay (Pierce Chemical Company) using wild-type human TNFα as a standard or by absorbance measurements at 280 nm.
(§3) TNFα was labelled by the Iodogen method (Pierce Chemical Company) to a specific activity of about 10-30 μCi/μg. The volume was 100 μl/well and each concentration was assayed in duplicate or triplicate. After three hours at room temperature the wells were thoroughly washed with PBS and counted in a γ-counter.

human TNFR-p55 [3] = experiment: Competitive binding of purified muteins to recombinant human TNFR-p55; conditions: for Decrease in Binding Affinity with Respect to Wildtype TNFR-p55: IC50 of mutein divided by IC50 of wildtype TNFα; for Mutein Concentration for 50% Inhibition of 125I-TNFα Binding (IC50) TNFR-p55: purified protein, 10 ng/ml 125I-TNFα, > = competition but below 50% at 100 μg/ml, >> = no measurable competition at 100 μg/ml
Method: as §2, §3

human TNFR-p55 [4] = experiment: Solid phase radioligand competition binding assay, E. coli lysates, TNFR-p55; conditions: for Dilution of E. coli Lysate for 50% Inhibition of 125I-TNFα Binding (ID50) TNFR-p55: 10-fold serial dilutions 10^-2 to 10^-7, < = inhibition but below 50% at 1:100, << = no measurable inhibition at 1:100; for ID50 TNFR-p55 / ID50 TNFR-p75: ratio = 1 no receptor selectivity, > 1 TNFR-p55 selectivity, < 1 TNFR-p75 selectivity
Method: as §1, with “After” for “10 ml suspensions of E. coli cells transformed and induced as described in Examples I and II were centrifuged at 4'000 rpm for 10 min and resuspended in 0.9 ml of lysis buffer (10 mM Tris-HCl pH 8.0, 5 mM EDTA, 2 mM PMSF, 10 mM benzamidine, 200 units/ml aprotinine and 0.1 mg/ml lysozyme). After”
as §3, with “lysate dilution” for “concentration”, “γ-counter. The results are given in Table 2 for lysates comprising the muteins indicated therein.” for “γ-counter.”

| Molecule | Dilution of E. coli Lysate for 50% Inhibition of 125I-TNFα Binding (ID50) TNFR-p75 (human TNFR-p75 [1]) | Decrease in Binding Affinity with Respect to Wildtype TNFR-p75 (human TNFR-p75 [2]) [fold] | Mutein Concentration for 50% Inhibition of 125I-TNFα Binding (IC50) TNFR-p75 (human TNFR-p75 [2]) [µg/mL] | Decrease in Binding Affinity with Respect to Wildtype TNFR-p55 (human TNFR-p55 [3]) | Mutein Concentration for 50% Inhibition of 125I-TNFα Binding (IC50) TNFR-p55 (human TNFR-p55 [3]) | Dilution of E. coli Lysate for 50% Inhibition of 125I-TNFα Binding (ID50) TNFR-p55 (human TNFR-p55 [4]) | ID50 TNFR-p55 / ID50 TNFR-p75 (human TNFR-p55 [4]) |
| --- | --- | --- | --- | --- | --- | --- | --- |
| A145F: human TNFα mutein A145F | 6,000 fold | 1.5 | 0.03 | 33 fold | 500 ng/mL | 240 fold | 0.04 |
| A145R: human TNFα mutein A145R | 3,330 fold | 0.8 | 0.035 | 2,500 fold | 100,000 ng/ml | < 100 fold | < 0.03 |
| A145W: human TNFα mutein A145W | < 100 fold | 2.5 | 0.1 | 250 fold | 10,000 ng/ml | < 100 fold | < 1 |
| D143N-A145R: human TNFα mutein D143N-A145R (Example I) | 125 fold | 6.7 | 0.3 | > 2,500 fold | > 100,000 ng/ml | < 100 fold | < 0.8 |
| D143N: human TNFα mutein D143N | 330 fold | 6.7 | 0.3 | > 2,500 fold | > 100,000 ng/ml | < 100 fold | < 0.3 |
| D143Y: human TNFα mutein D143Y | 1,330 fold | 17.5 | 0.35 | > 6,660 fold | > 100,000 ng/ml | < 100 fold | < 0.08 |
| Y87T: human TNFα mutein Y87T | < 100 fold |  |  |  |  | < 100 fold | 1 |
| Y115W: human TNFα mutein Y115W | 2,220 fold |  |  |  |  | 2,220 fold | 1 |
| L29S-R32W-S86T: human TNFα mutein L29S-R32W-S86T (protein) VRSSSRTPSDKPVAHVVANPQAEGQLQWSNRWANALLANGVELRDNQLVVPSEGLYLIYSQVLFKGQGCPSTHVLLTHTISRIAVTYQTKVNLLSAIKSPCQRETPEGAEAKPWYEPIYLGGVFQLEKGDRLSAEINRPDYLDFAESGQVYFGIIAL | < 100 fold |  |  |  |  | 2,500 fold | > 25 |
| R31N-R32T-N34S: human TNFα mutein R31N-R32T-N34S (protein) VRSSSRTPSDKPVAHVVANPQAEGQLQWLNNTASALLANGVELRDNQLVVPSEGLYLIYSQVLFKGQGCPSTHVLLTHTISRIAVSYQTKVNLLSAIKSPCQRETPEGAEAKPWYEPIYLGGVFQLEKGDRLSAEINRPDYLDFAESGQVYFGIIAL | < 100 fold |  |  |  |  | < 100 fold | 1 |
| D143V-F144L-A145S: human TNFα mutein D143V-F144L-A145S (protein) VRSSSRTPSDKPVAHVVANPQAEGQLQWLNRRANALLANGVELRDNQLVVPSEGLYLIYSQVLFKGQGCPSTHVLLTHTISRIAVSYQTKVNLLSAIKSPCQRETPEGAEAKPWYEPIYLGGVFQLEKGDRLSAEINRPDYLVLSESGQVYFGIIAL | < 100 fold |  |  |  |  | < 100 fold | < 1 |
| R31N-R32T-S86T: human TNFα mutein R31N-R32T-S86T (protein) VRSSSRTPSDKPVAHVVANPQAEGQLQWLNNTANALLANGVELRDNQLVVPSEGLYLIYSQVLFKGQGCPSTHVLLTHTISRIAVTYQTKVNLLSAIKSPCQRETPEGAEAKPWYEPIYLGGVFQLEKGDRLSAEINRPDYLDFAESGQVYFGIIAL | < 100 fold |  |  |  |  | 500 fold | > 5 |
